Where two headings read alike, the source gives them in different places.
Assays:
Assay type in all cases: cell-based
Target C = assay: RT-qPCR canonical junction panel assay, Target C; details: gene panel, read-out: Target C IC50 (decrease in CJ mRNA levels)
Procedure: (§1) Example 44: Exemplary splicing assay for monitoring expression levels of splice variants Compounds described herein were used to modulate RNA transcript abundance in cells. The expression of a target mRNA was measured by detecting the formation of an exon-exon junction in the canonical transcript (CJ). A compound mediated exon-inclusion event was detected by observing an increase in formation of a new junction with an alternative exon (AJ). Real-time qPCR assays were used to detect these splicing switches and interrogate the potency of various compounds towards different target genes. A high-throughput real time quantitative PCR (RT-qPCR) assay was developed to measure these two isoforms of the mRNA (CJ and AJ) for an exemplary gene, HTT, together with a control housekeeping gene, GAPDH or GUSB or PPIA, used for normalization. Briefly, the A673 or K562 cell line was treated with various compounds described herein (e.g., compounds of Formula (I)). After treatment, the levels of the HTT mRNA targets were determined from each sample of cell lysate by cDNA synthesis followed by qPCR.
(§2) The A673 cell line was cultured in DMEM with 10% FBS. Cells were diluted with full growth media and plated in a 96-well plate (15,000 cells in 100 µl media per well). The plate was incubated at 37° C. with 5% CO2 for 24 hours to allow cells to adhere. An 11-point 3-fold serial dilution of the compounds was made in DMSO then diluted in media in an intermediate plate. Compounds were transferred from the intermediate plate to the cell plate with the top dose at a final concentration of 10 uM in the well. Final DMSO concentration was kept at or below 0.25%. The cell plate was returned to the incubator at 37° C. with 5% CO2 for an additional 24 hours.
(§3) The K562 cell line was cultured in IMDM with 10% FBS. For K562, cells were diluted with full growth media and plated in either a 96-well plate (50,000 cells in 50 uL media per well) or a 384-well plate (8,000-40,000 cells in 45 uL media per well). An 11-point 3-fold serial dilution of the compounds were made in DMSO then diluted in media in an intermediate plate. Compound was transferred from the intermediate plate to the cell plate with the top dose at a final concentration of 10 uM in the well. Final DMSO concentration was kept at or below 0.25%. Final volume was 100 uL for 96-well plate and 50 uL for 384-well plate. The cell plate was then placed in an incubator at 37° C. with 5% CO2 for 24 hours.
(§4) The cells were then gently washed with 50 uL-100 uL cold PBS before proceeding to addition of lysis buffer. 30 uL-50 uL of room temperature lysis buffer with DNAse I (and optionally RNAsin) was added to each well. Cells were shaken/mixed thoroughly at room temperature for 5-10 minutes for lysis to take place and then 3 uL-5 uL of room temperature stop solution was added and wells were shaken/mixed again. After 2-5 minutes, the cell lysate plate was transferred to ice for RT-qPCR reaction setup. The lysates could also be frozen at ˜80° C. for later use.
(§5) In some cases, a direct lysis buffer was used. An appropriate volume of 3× lysis buffer (10 mM Tris, 150 mM NaCl, 1.5%-2.5% Igepal and 0.1-1 U/uL RNAsin, pH 7.4) was directly added to either K562 or A673 cells in media and mixed by pipetting 3 times. The plates were then incubated at room temperature with shaking/rocking for 20-50 minutes to allow for lysis to take place. After this time, the cell lysate plate was transferred to ice to set up for the RT-qPCR reactions. The lysates could also be frozen at −80° C. for later use.
(§6) To set up 10 uL RT-qPCR reactions, cell lysates were transferred to 384-well qPCR plates containing the master mix according to the table below. The plates were sealed, gently vortexed, and spun down before the run. The volumes were adjusted accordingly in some instances where the reaction was carried in 20 uL. The table below summarizes the components of the RT-qPCR reactions: […]

HTT [1] = assay: RT-qPCR splicing assay for HTT mRNA isoforms (canonical junction CJ and alternative junction AJ); details: A673 or K562 cell line, 24 hours treatment
Procedure: as §1, §2, §3, §4, §5, §6

HTT [2] = assay: RT-qPCR canonical junction panel assay, HTT; details: gene panel, read-out: HTT IC50 (decrease in CJ mRNA levels)
Procedure: as §1, §2, §3, §4, §5, §6

SMN2 = assay: RT-qPCR canonical junction panel assay, SMN2; details: gene panel, read-out: SMN2 IC50 (decrease in CJ mRNA levels)
Procedure: as §1, §2, §3, §4, §5, §6

[3] = decrease in CJ mRNA levels, read-out: HTT CJ AC50
[4] = increase in AJ mRNA, read-out: HTT AJ AC50

IC50 (Target C)	IC50 (HTT [2])	IC50 (SMN2)	SMILES	AC50 (HTT [1]; [3])	AC50 (HTT [1]; [4])
> 10 µM	> 10 µM	> 10 µM	Cc1cc(-c2cc(=O)n3cc(N4CCN(C)CC4)sc3n2)cc2cn(C)nc12 [Compound 109, 7-(2,7-dimethyl-2H-indazol-5-yl)-2-(4-methylpiperazin-1-yl)-5H-thiazolo[3,2-α]pyrimidin-5-one]	> 10 µM	> 10 µM
> 10 µM	> 10 µM	> 10 µM	Cc1cc(-c2cc(=O)n3nc(N4CCN(C)CC4)sc3n2)cc2cn(C)nc12 [Compound 157]	> 10 µM	> 10 µM
1 to 10 µM	1 to 10 µM	1 to 10 µM	Cc1cn2cc(-c3cc(=O)n4nc(N5CCN(C)CC5)sc4n3)cc(F)c2n1 [Compound 159, 7-(8-fluoro-2-methylimidazo[1,2-α]pyridin-6-yl)-2-(4-methylpiperazin-1-yl)-5H-[1,3,4]thiadiazolo[3,2-α]pyrimidin-5-one]	1 to 10 µM	1 to 10 µM
	1 to 10 µM	1 to 10 µM	CN1CCN(c2nc3ncn(-c4ccc5nn(C)cc5c4)c(=O)c3s2)CC1 [Compound 182, 6-(2-methyl-2H-indazol-5-yl)-2-(4-methylpiperazin-1-yl)thiazolo[4,5-d]pyrimidin-7(6H)-one]	1 to 10 µM	1 to 10 µM
	> 10 µM	1 to 10 µM	Cc1cc(-c2cn3c(=O)cc(N4CCN(C)CC4)nc3s2)cc2cn(C)nc12 [Compound 183, 2-(2,7-dimethyl-2H-indazol-5-yl)-7-(4-methylpiperazin-1-yl)-5H-thiazolo[3,2-α]pyrimidin-5-one]	> 10 µM	> 10 µM
	> 10 µM	1 to 10 µM	Cc1cn2cc(-c3cn4c(=O)cc(N5CCN(C)CC5)nc4s3)cc(F)c2n1 [Compound 184]	> 10 µM	> 10 µM
1 to 10 µM	1 to 10 µM	0.1 to 1 µM	Cc1cc(-c2nn3c(=O)cc(N4CCNCC4)nc3s2)cc2cn(C)nc12 [Compound 206, 2-(2,7-dimethyl-2H-indazol-5-yl)-7-(piperazin-1-yl)-5H-[1,3,4]thiadiazolo[3,2-α]pyrimidin-5-one]	1 to 10 µM	1 to 10 µM
> 10 µM	> 10 µM	0.1 to 1 µM	Cc1cn2cc(-c3cc(=O)n4cc(N5CCNC6(CC6)C5)sc4n3)cc(F)c2n1 [Compound 207, 7-(8-fluoro-2-methylimidazo[1,2-α]pyridin-6-yl)-2-(4,7-diazaspiro[2.5]octan-7-yl)-5H-thiazolo[3,2-α]pyrimidin-5-one]	> 10 µM	> 10 µM
1 to 10 µM	1 to 10 µM	1 to 10 µM	Cc1cn2cc(-c3cn4c(=O)cc(N5CCNC6(CC6)C5)nc4s3)cc(F)c2n1 [Compound 208, 2-(8-fluoro-2-methylimidazo[1,2-α]pyridin-6-yl)-7-(4,7-diazaspiro[2.5]octan-7-yl)-5H-thiazolo[3,2-α]pyrimidin-5-one]	1 to 10 µM	1 to 10 µM
1 to 10 µM	1 to 10 µM	1 to 10 µM	Cc1cn2cc(-c3cc(=O)n4nc(N5CCNC6(CC6)C5)sc4n3)cc(F)c2n1 [Compound 209, 7-(8-fluoro-2-methylimidazo[1,2-α]pyridin-6-yl)-2-(4,7-diazaspiro[2.5]octan-7-yl)-5H-[1,3,4]thiadiazolo[3,2-α]pyrimidin-5-one]	1 to 10 µM	1 to 10 µM
1 to 10 µM	1 to 10 µM	1 to 10 µM	Cc1cc(-c2nn3c(=O)cc(N4CCN(C)CC4)nc3s2)cc2cn(C)nc12 [Compound 210, 2-(2,7-dimethyl-2H-indazol-5-yl)-7-(4-methylpiperazin-1-yl)-5H-[1,3,4]thiadiazolo[3,2-α]pyrimidin-5-one]	1 to 10 µM	1 to 10 µM
1 to 10 µM	1 to 10 µM	0.1 to 1 µM	Cc1cn2nc(-c3cc(=O)n4cc(N5CCNC6(CC6)C5)sc4n3)cc(C)c2n1 [Compound 211, 7-(2,8-dimethylimidazo[1,2-b]pyridazin-6-yl)-2-(4,7-diazaspiro[2.5]octan-7-yl)-5H-thiazolo[3,2-α]pyrimidin-5-one]	1 to 10 µM	1 to 10 µM
1 to 10 µM	1 to 10 µM	1 to 10 µM	Cc1cn2nc(-c3cn4c(=O)cc(N5CCNC6(CC6)C5)nc4s3)cc(C)c2n1 [Compound 212, 2-(2,8-dimethylimidazo[1,2-b]pyridazin-6-yl)-7-(4,7-diazaspiro[2.5]octan-7-yl)-5H-thiazolo[3,2-α]pyrimidin-5-one]	1 to 10 µM	1 to 10 µM
> 10 µM	> 10 µM	1 to 10 µM	Cc1cn2cc(-c3cn4c(=O)cc(N5CCNCC5)nc4s3)cc(F)c2n1 [Compound 213, 2-(8-fluoro-2-methylimidazo[1,2-α]pyridin-6-yl)-7-(piperazin-1-yl)-5H-thiazolo[3,2-α]pyrimidin-5-one]	> 10 µM	> 10 µM
> 10 µM	1 to 10 µM	0.1 to 1 µM	Cc1cn2cc(-c3nn4c(=O)cc(N5CCNCC5)nc4s3)cc(F)c2n1 [Compound 214, 2-(8-fluoro-2-methylimidazo[1,2-α]pyridin-6-yl)-7-(piperazin-1-yl)-5H-[1,3,4]thiadiazolo[3,2-α]pyrimidin-5-one]	1 to 10 µM	> 10 µM
1 to 10 µM	1 to 10 µM	1 to 10 µM	Cc1cn2cc(-c3nn4c(=O)cc(N5CCNC6(CC6)C5)nc4s3)cc(F)c2n1 [Compound 216, 2-(8-fluoro-2-methylimidazo[1,2-α]pyridin-6-yl)-7-(4,7-diazaspiro[2.5]octan-7-yl)-5H-[1,3,4]thiadiazolo[3,2-α]pyrimidin-5-one]	1 to 10 µM	1 to 10 µM
1 to 10 µM	1 to 10 µM	1 to 10 µM	Cc1cn2cc(-c3nn4c(=O)cc(N5CCN(C)CC5)nc4s3)cc(F)c2n1 [Compound 217, 2-(8-fluoro-2-methylimidazo[1,2-α]pyridin-6-yl)-7-(4-methylpiperazin-1-yl)-5H-[1,3,4]thiadiazolo[3,2-α]pyrimidin-5-one]	1 to 10 µM	1 to 10 µM

SMILES	IC50 (Target C)	IC50 (HTT [2])	IC50 (SMN2)	AC50 (HTT [1]; [3])	AC50 (HTT [1]; [4])
Cc1cn2nc(-c3cc(=O)n4cc(N(C)C5CC(C)(C)NC(C)(C)C5)sc4n3)cc(C)c2n1 [Compound 205, 7-(2,8-dimethylimidazo[1,2-b]pyridazin-6-yl)-2-(methyl(2,2,6,6-tetramethylpiperidin-4-yl)amino)-5H-thiazolo[3,2-α]pyrimidin-5-one]	1 to 10 µM	1 to 10 µM	1 to 10 µM	1 to 10 µM	1 to 10 µM
Cc1cn2cc(-c3nn4c(=O)cc(N(C)C5CC(C)(C)NC(C)(C)C5)nc4s3)cc(F)c2n1 [Compound 215, 2-(8-fluoro-2-methylimidazo[1,2-α]pyridin-6-yl)-7-(methyl(2,2,6,6-tetramethylpiperidin-4-yl)amino)-5H-[1,3,4]thiadiazolo[3,2-α]pyrimidin-5-one]	1 to 10 µM	1 to 10 µM	0.1 to 1 µM	1 to 10 µM	1 to 10 µM

Source: patent US20240279239A1, “COMPOUNDS AND METHODS FOR MODULATING SPLICING” (REMIX THERAPEUTICS INC., priority 2020, published 2024)
